The experiment deals with male ICR mice. Put plainly: Novel object recognition in scopolamine hydrobromide-treated mice. Format: in vivo. Conditions: NOR; NH300094 0.01–0.16 mg/kg p.o.; risperidone 0.04, 0.08, 0.16 mg/kg p.o.; rivastigmine 0.3 and 1 mg/kg i.p. As for the experimental part: The procedure was modified according to Bevins and Besheer ([Bevins and Besheer, 2006]). […] The tests were conducted in a 50 cm × 35 cm × 20 cm chamber and the mice behavior was recording using a Hikvision video recording system (H.265, Hikvision Digtial Technology Co., Ltd.). All mice were allowed to freely explore the chamber environment for 10 min, and there were no objects placed in the chamber during acclimatization period. […] Rivastigmine hydrogen tartrate group (0.1, 0.3 and 1 mg/kg, i.p.) were dosed simultaneously with scopolamine hydrobromide (3 mg/kg, i.p.). Training was conducted 30 min post scopolamine hydrobromide administration by placing a single mouse into a chamber for 10 min with two exactly same objects positioned in the center of chamber. (The distance between the two objects was more than 20 cm). […]
The experimental video was analyzed to record the time of mice exploring the new and old objects, respectively, and the differentiation index (DI) was calculated as follows: DI = new object exploration time/(new object exploration time + old object exploration time), which was used as the main evaluation index of discrimination ability. […] If the total exploration time of the new and old objects was less than 20 s, the total 10 min of video would be analyzed. […] The movement of circling without sniffing or sitting on the object was not recorded as exploration behavior.

The structures appear in SMILES notation.

With `O=C1CCc2cc(OCCCN3CCC(c4noc5cc(F)ccc45)CC3)cc3c2N1CC3` [NH300094, 8-(3-(4-(6-fluorobenzo [d]isoxazol-3-yl)piperidin-1-yl)propoxy)-1,2,5,6-tetrahydro-4H-pyrrolo [3,2,1-ij] quinolin-4-one], the “effect on differentiation index (DI) of scopolamine hydrobromide-treated mice” value is given as “increased DI index”.
